Experimental data taken from ChEMBL document CHEMBL1201862, “PubChem BioAssay data set” (2004).
Active and inactive are the calls of the source.

Legend:
[1] = biological target: T1, Heat shock factor protein 1 (Mus musculus, UniProt P38532); assay: inhibition of MG132-induced HSE-luciferase signal, confirmation, cell-based, NIH3T3, luminescence, dose retest (AID 2382); type: functional;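 note: NIH3T3 fibroblasts with HSF1-driven luciferase reporter stressed by proteasome inhibitor MG132; luminescence from HSF1-driven luciferase expression after 8 hours of MG132 stress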
T1 sequence (P38532 whole entry): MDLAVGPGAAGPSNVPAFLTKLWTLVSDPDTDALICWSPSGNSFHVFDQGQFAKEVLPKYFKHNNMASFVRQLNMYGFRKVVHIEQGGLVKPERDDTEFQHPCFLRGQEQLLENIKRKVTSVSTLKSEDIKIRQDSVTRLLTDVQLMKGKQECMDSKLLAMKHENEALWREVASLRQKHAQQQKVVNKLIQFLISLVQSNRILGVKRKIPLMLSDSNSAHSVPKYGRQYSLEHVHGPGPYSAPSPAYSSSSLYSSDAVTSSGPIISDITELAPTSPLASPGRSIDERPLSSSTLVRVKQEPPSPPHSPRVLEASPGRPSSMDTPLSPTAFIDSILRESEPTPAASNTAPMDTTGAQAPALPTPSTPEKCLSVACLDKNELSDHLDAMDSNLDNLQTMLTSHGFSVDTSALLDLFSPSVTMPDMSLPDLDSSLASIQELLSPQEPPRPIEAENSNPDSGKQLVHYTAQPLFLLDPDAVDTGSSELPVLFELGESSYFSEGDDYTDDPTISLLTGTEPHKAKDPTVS

[2] = HepG2 cell cytotoxicity, dose response, cytotoxicity control for Shn3 inhibitor project, CellTiter-Glo, cherry-picked (AID 624134); type: functional, cell-based
HT-1080 = assay: cytotoxicity in HT1080 fibrosarcoma cells, cell-based, fluorescence readout (AID 620); type: functional; settings: Homo sapiens
[3] = Shn3 3'UTR reporter inhibitors, dose response, cell-based, Clone20 osteoblasts, firefly luciferase, cherry-picked (AID 624132); type: functional;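 note: firefly luciferase luminescence from reporter carrying the Shn3 3'UTR in osteoblasts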
[4] = biological target: Luciferin 4-monooxygenase (Photinus pyralis, UniProt P08659); assay: Counter Screen for Luciferase-based Assay Positives. [Related pubchem assays: 620, 618, 411 ]
[5] = biological target: T2, High affinity choline transporter 1 (Homo sapiens, UniProt Q9GZV3); assay: CHT inhibitors, dose response, cell-based, 10-point CRC, membrane potential dye (AID 588401); type: functional;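 note: membrane potential dye fluorescence of choline-evoked depolarization via CHT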
T2 sequence (Q9GZV3 whole entry): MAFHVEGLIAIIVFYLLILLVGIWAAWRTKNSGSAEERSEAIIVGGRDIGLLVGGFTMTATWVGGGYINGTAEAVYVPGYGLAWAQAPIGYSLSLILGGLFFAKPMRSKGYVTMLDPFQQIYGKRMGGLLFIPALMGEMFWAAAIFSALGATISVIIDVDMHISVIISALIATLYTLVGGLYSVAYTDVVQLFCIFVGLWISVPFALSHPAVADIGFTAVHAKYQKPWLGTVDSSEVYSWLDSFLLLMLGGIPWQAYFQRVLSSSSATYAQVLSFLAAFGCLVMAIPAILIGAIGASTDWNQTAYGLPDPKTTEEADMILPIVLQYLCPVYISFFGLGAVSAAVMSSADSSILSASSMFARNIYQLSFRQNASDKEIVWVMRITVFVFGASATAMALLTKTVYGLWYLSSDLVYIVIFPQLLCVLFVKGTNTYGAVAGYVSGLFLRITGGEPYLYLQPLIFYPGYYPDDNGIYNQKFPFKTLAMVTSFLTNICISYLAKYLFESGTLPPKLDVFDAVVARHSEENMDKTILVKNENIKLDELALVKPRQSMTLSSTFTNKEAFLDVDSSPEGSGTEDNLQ

[6] = Luminescence Cell-Based Dose Response HTS to Identify Inhibitors of 5'UTR Stem-Loop Driven Prion Protein mRNA Translation in H4 Neuroglioblastoma Cells. [Related pubchem assays: 1827 (Project Summary), 1813 (Primary HTS)]; type: functional
[7] = biological target: Sphingosine 1-phosphate receptor 1 (Homo sapiens, UniProt P21453); type: functional;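 note: Tango beta-arrestin reporter U2OS cells stimulated with S1P near its EC80; inhibitor potency meaning antagonism of receptor activation by the natural agonist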
[8] = biological target: Sphingosine 1-phosphate receptor 4 (Homo sapiens, UniProt O95977); assay: Fluorescence dose response cell-based high throughput screening assay for antagonists of the Sphingosine 1-Phosphate Receptor 4 (S1P4). [Related pubchem assays: 1524 (Confirmation in triplicates.), 1510 (Primary screen.)]; type: functional
[9] = biological target: T2, High affinity choline transporter 1; assay: CHT inhibitors, dose response, cell-based, 5-point CRC, membrane potential dye (AID 504840); type: functional
[10] = microbe, parasite or virus in culture; type: functional; settings: Mycobacterium tuberculosis
[11] = inhibitors of SNCA 5'UTR-driven reporter translation, confirmation, H4 neuroglioma cells, luminescence (AID 1988); type: functional, cell-based
[12] = control 3'UTR Renilla luciferase suppression, dose response, counter-screen for Shn3 inhibitor project, cell-based, Clone20-Shn3RL, cherry-picked (AID 624133); type: functional
Protein RecA = biological target: T3, Protein RecA (Mycobacterium tuberculosis, UniProt P9WHJ3); assay: Fluorescence Cell-Free Homogeneous Dose Retest to Identify Inhibitors of RecA-Intein Splicing Activity. [Related pubchem assays (depositor defined):AID2097, AID2223, AID489010, AID492950]; type: functional
T3 sequence (P9WHJ3 whole entry): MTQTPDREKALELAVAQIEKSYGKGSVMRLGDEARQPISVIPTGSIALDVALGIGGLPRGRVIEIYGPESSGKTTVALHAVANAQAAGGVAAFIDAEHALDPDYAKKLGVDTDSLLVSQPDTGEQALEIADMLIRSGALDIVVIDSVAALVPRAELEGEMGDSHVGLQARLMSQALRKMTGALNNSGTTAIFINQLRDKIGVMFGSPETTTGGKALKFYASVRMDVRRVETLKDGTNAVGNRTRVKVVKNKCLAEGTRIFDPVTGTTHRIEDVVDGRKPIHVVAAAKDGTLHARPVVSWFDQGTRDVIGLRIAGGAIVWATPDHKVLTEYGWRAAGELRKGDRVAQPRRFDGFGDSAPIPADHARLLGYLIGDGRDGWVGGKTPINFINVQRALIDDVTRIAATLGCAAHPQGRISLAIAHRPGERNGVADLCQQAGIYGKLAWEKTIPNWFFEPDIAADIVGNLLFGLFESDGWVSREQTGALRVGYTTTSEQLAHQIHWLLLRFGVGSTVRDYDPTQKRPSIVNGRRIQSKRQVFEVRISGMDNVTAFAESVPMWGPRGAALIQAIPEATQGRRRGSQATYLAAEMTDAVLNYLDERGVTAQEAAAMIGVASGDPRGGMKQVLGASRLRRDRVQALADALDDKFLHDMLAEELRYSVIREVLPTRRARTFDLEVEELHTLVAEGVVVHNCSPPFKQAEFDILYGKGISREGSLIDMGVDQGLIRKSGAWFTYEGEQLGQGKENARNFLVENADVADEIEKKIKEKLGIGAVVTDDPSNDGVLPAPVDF

CHO = assay: cytotoxicity in TLR9-MyD88 CHO cells, dose response, cytotoxicity control for TLR9-MyD88 binding inhibitor project, cell-based, luminescence (AID 588339); type: functional, hamster; settings: Cricetulus griseus;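 note: CHO cells stably coexpressing TLR9 and MyD88 fusions from primary screen; compound exposure lasted 48 hours before viability readout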
[13] = inhibitors of firefly luciferase expression or activity, dose response, H4 neuroglioma cells, luminescence (AID 1990); type: functional, cell-based
[14] = inhibitors of SNCA 5'UTR-driven translation, confirmation, luminescence, H4 neuroglioblastoma cells, dose confirmation (AID 2454); type: functional, cell-based;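 note: H4 neuroglioblastoma cells carrying an alpha-synuclein 5'UTR luciferase reporter; potency for inhibition of the luciferase signal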
[15] = HeLa 4N DNA content increase, dose response, cell-based, IC50 (AID 1117351); type: functional
cells [16] = type: functional, cell-based
[17] = HeLa 2N DNA content increase, dose response, cell-based, IC50 (AID 1117349); type: functional
cells [18] = type: functional, cell-based; remark: listed apart in the source
[19] = luciferase reporter signal reduction – luminescence, H4-C neuroglioblastoma cells, dose response (AID 2458); type: functional, cell-based;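 note: H4 neuroglioblastoma cells stably carrying a luciferase reporter gene fusion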
[20] = biological target: Mothers against decapentaplegic homolog 3 (Homo sapiens, UniProt P84022); assay: Smad3 binding inhibitors, lysate ELISA, dose response, cell lysate, secondary confirmation, chemiluminescent ELISA, HEK293 lysate (AID 1058); type: functional
Cysteine protease ATG4B = Cysteine protease ATG4B (Homo sapiens, UniProt Q9Y4P1); type: functional;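 note: Fluorescence-based dose-response confirmation assay measuring inhibition of ATG4B activity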
Phospholipase A2 = Phospholipase A2 (Homo sapiens, UniProt P04054); type: functional;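 note: confirmatory dose-response counterscreen on phospholipase A2, testing hits that came from an ultra-high-throughput screen for ATG4B inhibitors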
[21] = A cytotoxicity screen of small molecule inhibitors of the PhoP region in Salmonella typhi identified in the primary screen. [Related pubchem assays: 1850, 1864, 1985 ]; type: functional
[22] = biological target: G2/mitotic-specific cyclin-B1 (Homo sapiens, UniProt P14635); assay: Counterscreen assay for inhibitors of Wee1 degradation: dose response cell-based assay to identify inhibitors of cyclin B degradation. [Related pubchem assays: 1410, 1321 ]; type: functional
Wee1-like protein kinase = Wee1-like protein kinase (Homo sapiens, UniProt P30291); assay: Dose Response Cell-based Assay for Inhibitors of Wee1 Degradation. [Related pubchem assays: 1410, 1321 ]; type: functional
[23] = system: Streptococcus sp. 'group A'; assay: growth inhibition of control SK(-) GAS strain, dose response, counter-screen for streptokinase expression inhibitor project, luminescence, kanamycin, BacTiterGlo, confirmation (AID 1900); type: functional, organism-based
Streptokinase A = biological target: T4, Streptokinase A (Streptococcus pyogenes serotype M1, UniProt P10520); assay: S. pyogenes streptokinase expression inhibitors, potency, dose response, plasminogen activation absorbance, OD405 (AID 1914); type: functional, Streptococcus pyogenes M1 GAS;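 note: secreted streptokinase activity via plasminogen activation per viability signal from cell pellet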
T4 sequence (P10520 whole entry): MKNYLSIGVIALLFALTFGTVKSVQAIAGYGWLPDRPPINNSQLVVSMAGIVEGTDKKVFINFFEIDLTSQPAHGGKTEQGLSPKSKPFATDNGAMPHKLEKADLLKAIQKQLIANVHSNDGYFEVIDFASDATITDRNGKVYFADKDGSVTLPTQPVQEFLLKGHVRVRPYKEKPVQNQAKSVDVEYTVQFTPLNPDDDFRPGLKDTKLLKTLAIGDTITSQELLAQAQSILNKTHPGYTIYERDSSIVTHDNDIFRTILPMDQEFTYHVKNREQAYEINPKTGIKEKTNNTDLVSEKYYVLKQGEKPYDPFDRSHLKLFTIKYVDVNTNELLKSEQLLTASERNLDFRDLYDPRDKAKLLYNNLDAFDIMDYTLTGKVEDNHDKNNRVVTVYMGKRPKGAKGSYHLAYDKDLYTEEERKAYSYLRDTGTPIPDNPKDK

Streptococcus [24] = assay: Luminescence Microorganism-Based Dose Response Follow up to Identify Compounds Cytotoxic to Streptococcus. [Related pubchem assays: 1677 (Project Summary), 1915, 1914, 1902 (Retest at Dose), 1900 (Counter Screen), 1662 (Primary HTS)]; type: functional, organism-based
Streptococcus [25] = assay: Group A Streptococcus viability loss, dose response, counter-screen for streptokinase expression inhibitor project, luminescence, BacTiterGlo (AID 1915); type: functional, organism-based;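 note: potency for reduction of bacterial viability or growth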
Estrogen receptor = biological target: T5, Estrogen receptor (Homo sapiens, UniProt P03372); assay: ERα–SRC-3 coactivator interaction inhibitors, confirmation, orthogonal assay, biochemical, ELISA, streptavidin-HRP readout (AID 1079)
T5 sequence (P03372 whole entry): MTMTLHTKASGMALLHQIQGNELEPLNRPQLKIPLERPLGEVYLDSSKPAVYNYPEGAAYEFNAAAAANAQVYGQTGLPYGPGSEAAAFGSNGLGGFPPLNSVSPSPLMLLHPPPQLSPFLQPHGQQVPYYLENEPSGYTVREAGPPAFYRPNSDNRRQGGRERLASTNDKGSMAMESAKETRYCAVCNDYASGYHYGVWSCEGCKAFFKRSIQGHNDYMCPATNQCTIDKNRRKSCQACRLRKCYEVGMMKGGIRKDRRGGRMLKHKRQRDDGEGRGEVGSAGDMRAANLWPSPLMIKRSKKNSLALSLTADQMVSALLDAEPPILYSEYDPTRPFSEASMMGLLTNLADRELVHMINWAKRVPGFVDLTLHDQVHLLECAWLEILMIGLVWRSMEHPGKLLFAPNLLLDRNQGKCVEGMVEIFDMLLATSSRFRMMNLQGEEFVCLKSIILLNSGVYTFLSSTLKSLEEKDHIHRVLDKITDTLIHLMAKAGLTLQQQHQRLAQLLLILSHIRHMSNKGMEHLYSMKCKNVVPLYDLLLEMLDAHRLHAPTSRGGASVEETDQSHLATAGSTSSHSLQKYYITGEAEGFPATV

Sequence of Sphingosine 1-phosphate receptor 1 (P21453 whole entry): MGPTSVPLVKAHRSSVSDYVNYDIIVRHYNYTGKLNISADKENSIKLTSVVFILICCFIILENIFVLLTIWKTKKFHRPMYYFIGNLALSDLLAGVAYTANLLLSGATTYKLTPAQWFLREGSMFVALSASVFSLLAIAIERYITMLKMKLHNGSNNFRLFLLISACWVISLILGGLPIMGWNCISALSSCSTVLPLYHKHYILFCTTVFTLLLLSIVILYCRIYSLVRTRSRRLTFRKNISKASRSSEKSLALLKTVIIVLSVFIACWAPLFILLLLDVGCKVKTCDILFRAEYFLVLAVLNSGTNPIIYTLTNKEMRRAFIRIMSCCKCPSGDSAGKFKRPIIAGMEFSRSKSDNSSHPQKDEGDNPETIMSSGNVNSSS
Sequence of Luciferin 4-monooxygenase (P08659 whole entry): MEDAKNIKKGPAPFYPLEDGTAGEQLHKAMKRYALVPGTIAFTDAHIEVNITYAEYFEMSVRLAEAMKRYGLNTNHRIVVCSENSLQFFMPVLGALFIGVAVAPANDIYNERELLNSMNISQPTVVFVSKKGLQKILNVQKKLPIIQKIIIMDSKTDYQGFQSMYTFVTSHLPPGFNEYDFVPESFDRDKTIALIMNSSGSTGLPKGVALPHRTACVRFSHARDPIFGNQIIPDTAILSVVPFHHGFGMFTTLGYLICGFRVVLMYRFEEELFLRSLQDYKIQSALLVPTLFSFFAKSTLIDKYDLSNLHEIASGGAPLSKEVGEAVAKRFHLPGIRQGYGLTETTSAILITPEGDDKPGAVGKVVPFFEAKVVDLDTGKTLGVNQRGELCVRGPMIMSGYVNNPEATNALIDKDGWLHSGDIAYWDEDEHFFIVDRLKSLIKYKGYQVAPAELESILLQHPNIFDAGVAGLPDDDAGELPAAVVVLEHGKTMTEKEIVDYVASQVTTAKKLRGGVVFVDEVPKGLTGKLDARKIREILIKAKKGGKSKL
Sequence of Cysteine protease ATG4B (Q9Y4P1 whole entry): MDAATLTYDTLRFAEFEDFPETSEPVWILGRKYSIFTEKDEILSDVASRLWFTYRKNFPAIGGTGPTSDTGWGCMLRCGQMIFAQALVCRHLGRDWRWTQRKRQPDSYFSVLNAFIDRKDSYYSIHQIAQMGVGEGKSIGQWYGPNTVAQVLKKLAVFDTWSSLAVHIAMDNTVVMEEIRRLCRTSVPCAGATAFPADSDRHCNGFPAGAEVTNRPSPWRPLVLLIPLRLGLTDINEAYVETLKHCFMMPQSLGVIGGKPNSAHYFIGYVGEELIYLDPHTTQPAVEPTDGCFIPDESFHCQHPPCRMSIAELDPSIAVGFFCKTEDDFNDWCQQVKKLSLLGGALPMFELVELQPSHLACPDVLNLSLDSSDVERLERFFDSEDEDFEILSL
Sequence of Wee1-like protein kinase (P30291 whole entry): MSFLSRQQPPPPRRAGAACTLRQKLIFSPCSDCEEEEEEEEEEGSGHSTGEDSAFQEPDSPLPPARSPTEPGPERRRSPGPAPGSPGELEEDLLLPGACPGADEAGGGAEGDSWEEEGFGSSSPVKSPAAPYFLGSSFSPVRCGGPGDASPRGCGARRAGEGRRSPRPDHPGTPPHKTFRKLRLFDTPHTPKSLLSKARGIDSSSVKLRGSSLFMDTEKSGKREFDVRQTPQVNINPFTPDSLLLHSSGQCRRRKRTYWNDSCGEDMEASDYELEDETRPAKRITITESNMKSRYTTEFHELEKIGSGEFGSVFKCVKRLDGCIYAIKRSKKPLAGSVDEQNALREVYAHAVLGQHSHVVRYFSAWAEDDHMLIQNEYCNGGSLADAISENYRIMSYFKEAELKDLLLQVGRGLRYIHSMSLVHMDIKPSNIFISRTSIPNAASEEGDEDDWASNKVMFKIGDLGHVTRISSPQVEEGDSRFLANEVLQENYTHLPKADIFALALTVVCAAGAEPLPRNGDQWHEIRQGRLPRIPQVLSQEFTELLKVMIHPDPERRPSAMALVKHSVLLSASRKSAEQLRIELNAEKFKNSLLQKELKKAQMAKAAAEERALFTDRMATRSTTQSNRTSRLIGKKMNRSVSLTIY
Sequence of Mothers against decapentaplegic homolog 3 (P84022 whole entry): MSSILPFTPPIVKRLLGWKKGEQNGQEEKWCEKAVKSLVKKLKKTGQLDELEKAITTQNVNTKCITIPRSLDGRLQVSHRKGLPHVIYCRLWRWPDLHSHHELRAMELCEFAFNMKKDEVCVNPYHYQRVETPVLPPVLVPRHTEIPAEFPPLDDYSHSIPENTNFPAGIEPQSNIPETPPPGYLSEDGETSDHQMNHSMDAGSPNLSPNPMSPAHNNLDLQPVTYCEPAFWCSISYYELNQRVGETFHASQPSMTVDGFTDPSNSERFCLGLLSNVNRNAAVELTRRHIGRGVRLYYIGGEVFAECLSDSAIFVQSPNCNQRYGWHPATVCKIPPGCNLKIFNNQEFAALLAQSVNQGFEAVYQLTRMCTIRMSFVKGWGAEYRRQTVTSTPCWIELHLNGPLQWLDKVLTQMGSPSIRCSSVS
Sequence of Phospholipase A2 (P04054 whole entry): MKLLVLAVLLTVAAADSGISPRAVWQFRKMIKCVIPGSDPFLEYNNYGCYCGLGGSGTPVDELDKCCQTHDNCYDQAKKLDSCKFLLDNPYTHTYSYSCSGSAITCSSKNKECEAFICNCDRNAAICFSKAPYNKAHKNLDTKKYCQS
Sequence of Sphingosine 1-phosphate receptor 4 (O95977 whole entry): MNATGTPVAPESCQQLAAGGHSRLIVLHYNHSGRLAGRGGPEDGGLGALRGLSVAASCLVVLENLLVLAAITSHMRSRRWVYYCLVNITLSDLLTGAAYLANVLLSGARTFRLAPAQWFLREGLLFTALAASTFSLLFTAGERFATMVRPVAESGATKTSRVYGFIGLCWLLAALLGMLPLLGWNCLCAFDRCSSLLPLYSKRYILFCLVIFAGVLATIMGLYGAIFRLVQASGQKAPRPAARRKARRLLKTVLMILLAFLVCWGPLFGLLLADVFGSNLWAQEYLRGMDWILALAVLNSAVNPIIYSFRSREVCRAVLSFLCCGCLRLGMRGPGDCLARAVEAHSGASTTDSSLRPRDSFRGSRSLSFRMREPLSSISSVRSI
Sequence of G2/mitotic-specific cyclin-B1 (P14635 whole entry): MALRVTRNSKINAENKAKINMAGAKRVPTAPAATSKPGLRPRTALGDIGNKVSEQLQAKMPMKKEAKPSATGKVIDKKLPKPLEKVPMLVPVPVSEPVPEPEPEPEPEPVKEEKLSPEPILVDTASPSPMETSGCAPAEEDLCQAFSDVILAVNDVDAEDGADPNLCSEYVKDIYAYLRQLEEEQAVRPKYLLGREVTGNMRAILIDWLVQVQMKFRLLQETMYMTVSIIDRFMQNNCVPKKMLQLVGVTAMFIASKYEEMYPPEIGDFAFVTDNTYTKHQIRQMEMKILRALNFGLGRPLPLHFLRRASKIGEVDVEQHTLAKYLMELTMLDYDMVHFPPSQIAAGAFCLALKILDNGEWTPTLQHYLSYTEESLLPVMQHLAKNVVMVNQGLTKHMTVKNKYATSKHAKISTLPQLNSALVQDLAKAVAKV

CN1/C(=C/C(=O)c2nc(S(C)(=O)=O)ncc2Cl)C(C)(C)c2ccccc21
EC50 [1]: 4.37 µM (active) | AC50 [2]: 12.2 µM (active) | EC50 (HT-1080): 17.8 µM (active) | AC50 [3]: 5.21 µM (active) | EC50 [4]: 1.14 µM (active) | IC50 [5]: 3.81 µM (active) | EC50 [6]: 10.1 µM (active) | IC50 [7]: 11.9 µM (not active) | IC50 [8]: 1.31 µM (active) | IC50 [9]: 4.81 µM (active) | CC50 [10]: 19.5 µM (active) | EC50 [11]: 9.18 µM (active) | AC50 [12]: 8.57 µM (active) | EC50 (Protein RecA): 1.81 µM (active) | IC50 (CHO): 2.72 µM (active) | EC50 [13]: > 120 µM (not active)

COC(=O)Nc1nc2cc(C(=O)c3cccs3)ccc2[nH]1 [NOCODAZOLE]
EC50 [14]: 0.183 µM (active) | IC50 [15]: 0.0176 µM (active) | EC50 (cells [16]): 0.203 µM (active) | EC50 [6]: < 0.1 µM (active) | IC50 [17]: 0.0174 µM (active) | EC50 [11]: < 0.1 µM (active) | IC50 (cells [18]): > 67.5 µM (inactive) | EC50 [19]: 0.195 µM (active)

Oc1ccccc1C(c1cc2c(cc1O)OCO2)N1CCOCC1 (stereo not given)
IC50 [20]: 6.96 µM (not active)

O=c1c2ccccc2nc(-c2ccoc2)n1CCc1ccccc1
IC50 (Cysteine protease ATG4B): 14.3 µM (active) | IC50 (Phospholipase A2): 13.9 µM (active) | EC50 [21]: > 50 µM (active)

Cn1cccc1/C=C1\SC(Nc2ccccc2)=NC1=O
EC50 [22]: > 5.53 µM (active) | EC50 (Wee1-like protein kinase): > 49.7 µM (not active)

Cc1cc(C(=O)OC(C(=O)Nc2cccc(C(F)(F)F)c2)c2ccccc2)c(C)o1 (stereo not given)
EC50 [23]: 22.6 µM (active) | EC50 (Streptokinase A): 4.11 µM (active) | EC50 (Streptococcus [24]): > 500 µM (not active) | EC50 (Streptococcus [25]): > 150 µM (not active)

O=C(CCCCCn1c(=S)[nH]c2ccccc2c1=O)N1CCC(Nc2ccccc2)CC1
IC50 (Estrogen receptor): 0.18 µM (not active)
